From US11560400B2, “Salts of diphosphate phosphoramidate of nucleosides as anticancer compounds” (NuCana plc, priority 2017, dated 2023)
Where a name gives a salt, the structure may show the parent alone. Read-outs that look alike come from different tables or passages of the source.

Columns and labels:
HepG2 = experiment: CellTiterGlo cell viability assay, HepG2; format: cell-based; conditions: HepG2, 72 h; for inhibition at 198 µM: read-out: Top Inhibit
How it was run: (§1)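 Cells were treated in duplicate for 72 h under standard growth conditions with a 9-point, 3.16-fold compound series at final concentrations of 198 μM to 19.8 nM in 0.5% DMSO. Viability was measured by CellTiterGlo luminescence, and absolute EC50 and percent inhibition at the top concentration were derived.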

RL = experiment: CellTiterGlo cell viability assay, RL; format: cell-based; conditions: 72 h; for inhibition at 198 µM: Homo sapiens, read-out: Top Inh
How it was run: as §1

HT29 = experiment: CellTiterGlo cell viability assay, HT29; format: cell-based; conditions: HT29, 72 h; for EC50: Table 4 classes, read-out: Ab EC50; for inhibition at 198 µM: read-out: Top Inhibit
How it was run: as §1

KG-1 = experiment: CellTiterGlo cell viability assay, KG-1; format: cell-based; conditions: KG-1, 72 h; for EC50: Table 4 classes, read-out: Ab EC50; for inhibition at 198 µM: read-out: Top Inhibit
How it was run: as §1

HL-60 = experiment: CellTiterGlo cell viability assay, HL-60; format: cell-based; conditions: HL-60, 72 h; for EC50: Table 4 classes, read-out: Ab EC50; for inhibition at 198 µM: read-out: Top Inh
How it was run: as §1

MCF-7 = experiment: CellTiterGlo cell viability assay, MCF-7; format: cell-based; conditions: MCF-7, 72 h, percentage inhibition at the highest concentration tested; for inhibition at 198 µM: Homo sapiens, MCF7, 72 h, read-out: Top Inhibit
How it was run: as §1

OVCAR 3 = experiment: CellTiterGlo cell viability assay, OVCAR 3; format: cell-based; conditions: for inhibition at 198 µM: OVCAR-3, 72 h, read-out: Top Inhibit; for EC50: Table 4 classes, read-out: Ab EC50
How it was run: as §1

MOLT-4 = experiment: CellTiterGlo cell viability assay, MOLT-4; format: cell-based; conditions: MOLT-4, 72 h; for inhibition at 198 µM: read-out: Top Inh; for EC50: Table 4 classes, read-out: Ab EC50
How it was run: as §1

CCRF-CEM = experiment: CellTiterGlo cell viability assay, CCRF-CEM; format: cell-based; conditions: 72 h; for EC50: Table 4 classes, read-out: Ab EC50; for inhibition at 198 µM: read-out: Top Inh
How it was run: as §1

K562 = experiment: CellTiterGlo cell viability assay, K562; format: cell-based; conditions: for inhibition at 198 µM: read-out: Top Inh; for EC50: K 562, 72 h, Table 4 classes, read-out: Ab EC50
How it was run: as §1

RPMI-8226 = experiment: CellTiterGlo cell viability assay, RPMI-8226; format: cell-based, Human; conditions: RPMI-8226, 72 h; for EC50: Table 4 classes, read-out: Ab EC50; for inhibition at 198 µM: read-out: Top Inh
How it was run: as §1

[1] = Homo sapiens, percentage inhibition at the highest concentration tested
[2] = percentage inhibition at the highest concentration tested
[3] = Homo sapiens, HT-29, 72 h, percentage inhibition at the highest concentration tested
[4] = Homo sapiens, K562, 72 h, percentage inhibition at the highest concentration tested

SMILES | inhibition at 198 µM (HepG2; [1]) [%] | inhibition at 198 µM (RL; [2]) [%] | EC50 (HT29; Homo sapiens, HT-29, 72 h) [nM] | inhibition at 198 µM (HT29; [3]) [%] | EC50 (KG-1; Homo sapiens) [nM] | inhibition at 198 µM (KG-1; [1]) [%] | EC50 (HL-60; Homo sapiens) [nM] | inhibition at 198 µM (HL-60; [1]) [%] | inhibition at 198 µM (MCF-7) [%] | inhibition at 198 µM (OVCAR 3; [1]) [%] | EC50 (OVCAR 3; Homo sapiens, OVCAR 3, 72 h) [nM] | inhibition at 198 µM (MOLT-4; [1]) [%] | EC50 (MOLT-4; Homo sapiens) [nM] | EC50 (CCRF-CEM; Homo sapiens) [nM] | inhibition at 198 µM (CCRF-CEM; [1]) [%] | inhibition at 198 µM (K562; [4]) [%] | EC50 (K562; Homo sapiens, K562) [nM] | EC50 (RPMI-8226; Homo sapiens) [nM] | inhibition at 198 µM (RPMI-8226; [1]) [%] | further results
COC(=O)[C@H](CCSC)NP(=O)(Oc1ccccc1)OP(=O)(O)OC[C@H]1O[C@@H](n2cnc3c(N)nc(Cl)nc32)C(F)[C@H]1O (stereo partly drawn) [Example 24, 2-Chloro-9-(2′-Deoxy-2′-fluoro-β-D-arabinofuranosyl)adenine-5′-O-[l-phenyl(methoxy-L-metioninyl)] Diphosphate Triethylammonium Salt] | 54 | 39 | 200 to 1000 | 70 | < 200 | 91 | < 200 | 95 | 49 | 67 | > 10000 | 88 | < 200 | < 200 | 99 | 49 | > 10000 | > 10000 | 86 | EC50 (HepG2; Homo sapiens, Table 4 classes, read-out: Ab EC50): 1000 to 5000 nM
CCOC(=O)[C@@H](NP(=O)(Oc1ccccc1)OP(=O)(O)OC[C@H]1O[C@@H](n2cnc3c(N)nc(Cl)nc32)C(F)[C@H]1O)C(C)CC (stereo partly drawn) [Example 25, 2-Chloro-9-(2′-Deoxy-2′-fluoro-β-D-arabinofuranosyl)adenine-5′-O-[l-phenyl(ethoxy-L-isoleucinyl)] Diphosphate Triethylammonium Salt] | 49 | 44 | 200 to 1000 | 67 | < 200 | 91 | < 200 | 95 | 43 | 24 | > 10000 | 86 | < 200 | < 200 | 99 | 33 | > 10000 | 1000 to 5000 | 83 | –
CCN(CC)CC.C[C@H](NP(=O)(Oc1cccc2ccccc12)OP(O)(=S)OC[C@H]1O[C@@H](n2cnc3c(N)nc(Cl)nc32)[C@@H](F)[C@@H]1O)C(=O)OCc1ccccc1 (stereo partly drawn) [Example 26, 2-Chloro-9-(2′-Deoxy-2′-fluoro-β-D-arabinofuranosyl)adenine-5′-O-[l-naphthyl(benzoxy-L-alaninyl)] phosphorothiol-phosphate Triethylammonium Salt] | – | – | – | – | – | – | – | – | – | – | – | – | – | – | – | – | – | – | – | Top Inhibit (HepG2; [2]): 49%; EC50 (RL; Table 4 classes, read-out: Ab EC50): > 10000 nM; Top Inh (RL; [2]): 56%; EC50 (HT29): 200 to 1000 nM; Top Inhibit (HT29; [2]): 64%; EC50 (KG-1): < 200 nM; Top Inhibit (KG-1; [2]): 91%; EC50 (HL-60): < 200 nM; Top Inh (HL-60; [2]): 95%; Top Inhibit (MCF-7): 44%; EC50 (OVCAR 3; OVCAR 3, 72 h): > 10000 nM; Top Inhibit (OVCAR 3; OVCAR 3, 72 h, percentage inhibition at the highest concentration tested): 62%; EC50 (MOLT-4): < 200 nM; Top Inh (MOLT-4; [2]): 84%; EC50 (CCRF-CEM): < 200 nM; Top Inh (CCRF-CEM; [2]): 99%; EC50 (K562): > 10000 nM; Top Inh (K562; K562, 72 h, percentage inhibition at the highest concentration tested): 69%; EC50 (RPMI-8226): 1000 to 5000 nM; Top Inh (RPMI-8226; [2]): 93%
